Reference: article PMC10672942 (2023)

What was measured:
[1] = tested on: pApU (RNA, polymer) A/U; test: UV melting at 260 nm; conditions: Na+ (sodium cacodylate 50 mM); pH 7.0; r = 0.3 [peptide]/[phosphate], polynucleotide 2.0 × 10^-5 M; free Tm 48.9 °C; per base
[2] = tested on: pApU (RNA, polymer) A/U; test: fluorescence titration; conditions: Na+ (sodium cacodylate 50 mM); pH 7.0, 25 °C; Scatchard fit, fixed n = 0.3; per base
[3] = tested on: p(dAdT)2 (DNA, polymer) AT; test: fluorescence titration; conditions: Na+ (sodium cacodylate 50 mM); pH 7.0, 25 °C; Scatchard fit, fixed n = 0.3; per base
[4] = tested on: p(dGdC)2 (DNA, polymer) GC; test: fluorescence titration; conditions: Na+ (sodium cacodylate 50 mM); pH 7.0, 25 °C; Scatchard fit, fixed n = 0.3; per base
[5] = tested on: ds-dA10-dT10 (oligoAT10) (DNA, duplex) AAAAAAAAAA/TTTTTTTTTT; test: HPLC after irradiation at 300 nm; conditions: ammonium acetate 100 mM; covalent; photoalkylation via quinone methide, 15 and 60 min, pH 7.0

In the case of `CN(C)Cc1cc(C[C@H](NC(=O)[C@@H](N)CNC(=O)c2ccc3ccc4cccc5ccc2c3c45)C(=O)OCc2ccccc2)ccc1O`, the ΔTm [1] is reported as 1.9 ± 0.6 °C, the logKa [2] is reported as 6.8 and the logKa [3] is reported as > 7. It also gave a logKa [4] of 6.7.

A ΔTm [1] of 1.4 ± 0.2 °C, a logKa [2] of 6.9 and a logKa [3] of 6.8 were found for `CN(C)Cc1cc(C[C@H](NC(=O)[C@@H](N)CCCCNC(=O)c2ccc3ccc4cccc5ccc2c3c45)C(=O)OCc2ccccc2)ccc1O` in this work. For the same compound, the logKa [4] was 6.6 and the binding [5] was “yes”.
